From PMC12428237, “Study on the Calcium Transport-Promoting Property and Mechanism of the Peptide–Calcium Complex DEEENDQVK–Ca Based on a Caco-2 Monolayer Model” (Foods, 2025)

Tests used:
[1] = tested on: occludin; assay: RT-qPCR, occludin mRNA expression; format: cell-based, human; details: Caco-2 monolayer, 24 h, 2 mg/mL DK–Ca or 2 mg/mL DK + 7.5 mM CaCl2; normalized to GAPDH, 2^-ΔΔCt; n = 3
Experimental: (§1) The expression levels of genes related to calcium transport channels were determined following the method of Li et al.. After 21 days of establishing the Caco-2 monolayer model, the monolayers were treated for 24 h with a complete medium containing 2 mg/mL DK–Ca or 2 mg/mL DK + 7.5 mM CaCl2. The group without an added sample served as the control group. Subsequently, the monolayers were washed thrice with HBSS buffer before cell lysis using 200 μL RNAiso Plus. Total RNA was extracted, and first-strand cDNA synthesis was subsequently performed with the PrimeScript® RT reagent kit as per the kit manufacturer’s instructions. Using cDNA as a template, RT-qPCR was performed with gene-specific primers targeting TRPV6, calbindin-D9k, PMCA1b, occludin, and claudin-2. The standard procedure for PCR amplification was as follows: 95 °C for 30 s, followed by 40 cycles of 95 °C for 5 s, 60 °C for 30 s, and 72 °C for 1 min. Target gene expression level was normalized to GAPDH and calculated using the 2^^(-ΔΔCt) relative quantification method. In experimental groups, GAPDH served as the internal reference gene for normalization. All primer sequences used in this study are detailed in Table S1.

[2] = Caco-2; cited from earlier work
[3] = tested on: claudin-2; assay: RT-qPCR, claudin-2 mRNA expression; format: cell-based, human; details: Caco-2 monolayer, 24 h, 2 mg/mL DK–Ca or 2 mg/mL DK + 7.5 mM CaCl2; normalized to GAPDH, 2^-ΔΔCt; n = 3
Experimental: as §1

[4] = tested on: Caco-2 monolayer; assay: Effect of dietary components (vitamin D3, phytic acid) on calcium transport in Caco-2 monolayer; format: cell-based, human; details: 120 min, control without dietary component, n = 3
Experimental: Vitamin D3 (0.5 μmol/L, dissolved in 0.1% ethanol) or phytic acid (1.8 mM, with a of phytic acid/calcium molar ratio of 0.24) was added to the AP side to evaluate the effect of dietary components on calcium transport. The group without an added dietary component served as the control group. After 120 min incubation, the BL side solution was collected for calcium transport analysis.

[5] = tested on: TRPV6; assay: RT-qPCR, TRPV6 mRNA expression; format: cell-based, human; details: Caco-2 monolayer, 24 h, 2 mg/mL DK–Ca or 2 mg/mL DK + 7.5 mM CaCl2; normalized to GAPDH, 2^-ΔΔCt; n = 3
Experimental: as §1

[6] = tested on: PMCA1b; assay: RT-qPCR, PMCA1b mRNA expression; format: cell-based, human; details: Caco-2 monolayer, 24 h, 2 mg/mL DK–Ca or 2 mg/mL DK + 7.5 mM CaCl2; normalized to GAPDH, 2^-ΔΔCt; n = 3
Experimental: as §1

[7] = tested on: Caco-2 monolayer; assay: Calcium transport assay in Caco-2 monolayer model; format: cell-based, human; details: 120 min
Experimental: Caco-2 cells (passages 15–30) were seeded at 1 × 10^5 cells/mL in Transwell chambers (12 mm, 0.4 μm pores, polycarbonate membrane, 1.12 cm^2 area) to establish a Caco-2 monolayer model. The culture medium (0.5 mL in the apical and 1.5 mL in the basolateral) was refreshed every 48 h (first week), then daily (next two weeks). The integrity of the Caco-2 cell monolayer model was verified by the following multiple indicators: Transepithelial electrical resistance (TEER) was monitored every 48 h using an epithelial voltohmmeter (RE1600, Beijing Jingong Hongtai Technology Co., Ltd., Beijing, China). Alkaline phosphatase (ALP) activity was measured on days 8, 12, 14, 16, and 21 after inoculation utilizing an ALP assay kit, following the manufacturer’s protocol. Transepithelial permeability was evaluated using sodium fluorescein following the method of Qiu et al..
Caco-2 monolayer models with a TEER value exceeding 500 Ω·cm^2 are permitted for calcium transport studies. Following three sequential washes with Hank’s balanced salt solution (HBSS; calcium/magnesium-free, pH 7.4), monolayers were equilibrated at 37 °C for 30 min. Afterward, the Transwell chambers were moved to fresh receiver plates for transport assays.
Concentration-dependent CaCl2 transport assay: 0.5 mL of CaCl2 solution (1.5~10 mM) was added to the apical (AP) side. The basolateral (BL) side contained 1.5 mL prewarmed HBSS. After 120 min incubation at 37 °C and 5% CO2, the BL side solution was collected for calcium transport analysis.
Time-dependent CaCl2 transport assay: The AP side contained 0.5 mL of 7.5 mM CaCl2 solution, and the BL side 1.5 mL prewarmed HBSS. At designated intervals (30~180 min), 1 mL BL side solution was collected and replaced with equal volumes of fresh HBSS buffer to maintain consistency.
Different concentrations of DK solution (0.5~2 mg/mL, 0.5 mL) containing 7.5 mM CaCl2, or 0.5 mL of DK–Ca solution (0.5~2 mg/mL), were added to the AP side. The BL side contained 1.5 mL prewarmed HBSS. The control group contained 7.5 mM CaCl2 alone on the AP side. At designated intervals (30~180 min), 1 mL BL side solution was collected and replaced with equal volumes of fresh HBSS buffer to maintain consistency.
Calcium concentration in the collected sample was measured using a calcium colorimetric assay kit at 575 nm. Transported calcium was calculated as follows:(1) Tn=1.5Cn+1×∑k=1n-1Ck […]

[8] = tested on: calbindin-D9k; assay: RT-qPCR, calbindin-D9k mRNA expression; format: cell-based, human; details: Caco-2 monolayer, 24 h, 2 mg/mL DK–Ca or 2 mg/mL DK + 7.5 mM CaCl2; normalized to GAPDH, 2^-ΔΔCt; n = 3
Experimental: as §1

Substance: DEEENDQVK–Ca [DK–Ca, complex formed by chemically chelating DK with CaCl2]
- occludin mRNA expression compared to the control group [1]: unchanged
- calcium dialysis rate relative to CaCO3 [2]: 1.79 times
- solubility relative to blank control group (CaCO3) [2]: 1.56 times
- claudin-2 mRNA expression, upregulation compared to the control group [3]: 1.50 fold
- reduction of transported calcium by phytic acid compared to the control group ([4]; phytic acid 1.8 mM (phytic acid/calcium molar ratio 0.24) on AP side): 7.83%
- increase of transported calcium by vitamin D3 compared to the control group ([4]; vitamin D3 0.5 μmol/L on AP side): 11.3%
- TRPV6 mRNA expression, upregulation compared to the untreated control group [5]: 2.70 fold
- PMCA1b mRNA expression, upregulation compared to the untreated control group [6]: 2.17 fold
- transported calcium ([7]; 2 mg/mL DK–Ca (calcium content 300 μg/mL) on AP side, AP to BL, HBSS pH 7.4, 37 °C, calcium colorimetric kit 575 nm, mean ± SD, n = 3): 74.11 ± 1.25 μg/well
- transported calcium, fold higher than that of the CaCl2 control group ([7]; calcium content 300 μg/mL (2 mg/mL peptide sample), AP to BL, 37 °C): 1.83 fold
- calcium transport-promoting capacity relative to DK + CaCl2 ([7]; equivalent calcium dose (7.5 mM)): 1.37 times
- calbindin-D9k mRNA expression, upregulation compared to the untreated control group [8]: 2.26 fold
